For 12 molecules, IC50 results are on record in US20260138990A1, “TRICYCLIC FUSED IMIDAZOLE COMPOUNDS AS CD38 MODULATORS AND USES THEREOF” (AEOVIAN PHARMACEUTICALS, INC., priority 2023, published 2026).

One may read the IC50 as the concentration that inhibits the measured activity by half.

One assay addresses T1, human CD38 (Homo sapiens, UniProt P28907).
T1 construct: purchased Bio-Techne GmbH AVI2404
T1 sequence (P28907 1-300): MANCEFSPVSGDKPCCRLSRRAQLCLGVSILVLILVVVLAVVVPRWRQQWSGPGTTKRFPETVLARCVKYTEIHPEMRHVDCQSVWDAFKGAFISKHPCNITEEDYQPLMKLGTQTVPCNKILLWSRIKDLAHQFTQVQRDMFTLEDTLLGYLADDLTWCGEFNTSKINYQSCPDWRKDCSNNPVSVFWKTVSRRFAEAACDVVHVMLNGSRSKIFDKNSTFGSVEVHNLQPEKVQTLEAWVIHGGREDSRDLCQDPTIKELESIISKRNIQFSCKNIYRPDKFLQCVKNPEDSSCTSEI
In words: NAD+ cyclase activity assay with human recombinant CD38 protein (ε-NAD fluorescence). In kind it is biochemical. Conditions: 1.9 nM human CD38, substrate ε-NAD, 30 min preincubation, fluorescence 300/410 nm. In a few lines: (§1)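 Recombinant CD38 (0.6 nM mouse or 1.9 nM human) in 40 mM HEPES/NaOH pH 7.5, 250 mM sucrose, 0.01% Tween was preincubated with compound for 30 min at room temperature, then […] ε-NAD was added. Fluorescence (ex 300/em 410 nm) was read continuously. Slopes over the linear phase were normalised to enzyme and no-enzyme controls and fitted from 12-point, threefold dose-response curves.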

The next assay addresses T2, mouse CD38 (Mus musculus, UniProt P56528).
T2 construct: purchased Bio-Techne GmbH 4947-AC
T2 sequence (P56528 1-304): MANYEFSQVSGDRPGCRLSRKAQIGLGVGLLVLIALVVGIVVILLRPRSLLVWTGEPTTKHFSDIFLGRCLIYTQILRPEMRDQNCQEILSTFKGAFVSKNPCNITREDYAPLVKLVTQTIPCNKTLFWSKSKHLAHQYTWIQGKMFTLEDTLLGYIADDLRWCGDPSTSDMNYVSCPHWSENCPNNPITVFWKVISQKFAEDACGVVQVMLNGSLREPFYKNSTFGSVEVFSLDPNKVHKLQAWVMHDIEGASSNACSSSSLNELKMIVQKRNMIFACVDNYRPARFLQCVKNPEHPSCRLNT
Briefly: NAD+ cyclase activity assay with mouse recombinant CD38 protein (ε-NAD fluorescence). Conditions: 0.6 nM mouse CD38, substrate ε-NAD, 30 min preincubation, fluorescence 300/410 nm. In kind it is biochemical. The gist of the method: as §1

Turning to `C[C@@H]1CCC[C@@H](C)C1NC(=O)c1cc(F)c2c(c1)-c1cncn1CCO2` (relative stereo) [Compound 177A, N-(trans-2-cis-6-Dimethylcyclohexyl)-8-fluoro-5,6-dihydrobenzo[f]imidazo[1,5-d][1,4]oxazepine-10-carboxamide], the IC50 at human CD38 is less than 30 nM; on mouse CD38, 1 to 10 nM.

On to `O=C(N[C@H]1CC[C@H](C(F)(F)F)CC1)c1ccc2c(c1)-c1cncn1CCO2` [Compound 52A, N-((1r,4r)-4-(Trifluoromethyl)cyclohexyl)-5,6-dihydrobenzo[f]imidazo[1,5-d][1,4]oxazepine-10-carboxamide], for which the values for the IC50 at human CD38 and at mouse CD38 were less than 30 nM and 1 to 10 nM, respectively.

Turning to `O=C(N[C@@H]1CCC(F)(F)C1)c1cc(Cl)c2c(c1)-c1cncn1CCO2` [Compound 112A, (R)-8-Chloro-N-(3,3-difluorocyclopentyl)-5,6-dihydrobenzo[f]imidazo[1,5-d][1,4]oxazepine-10-carboxamide], the IC50 was less than 30 nM on human CD38 and less than 1 nM on mouse CD38.

In the case of `O=C(N[C@H]1CC[C@H](NCC(F)F)CC1)c1ccc2c(c1)-c1cncn1CCO2` [Compound 63A, N-((1r,4r)-4-((2,2-Difluoroethyl)amino)cyclohexyl)-5,6-dihydrobenzo[f]imidazo[1,5-d][1,4]oxazepine-10-carboxamide], the results for the IC50 on human CD38 and on mouse CD38 were less than 30 nM and 1 to 10 nM, respectively.

Regarding `O=C(N[C@H]1CC[C@H](OC2CC(F)(F)C2)CC1)c1cc(Cl)c2c(c1)-c1cncn1CCO2` [Compound 172A, N-((1r,4r)-4-(3,3-difluorocyclobutoxy)cyclohexyl)-8-chloro-5,6-dihydrobenzo[f]imidazo[1,5-d][1,4]oxazepine-10-carboxamide], the IC50 at human CD38 is less than 30 nM; at mouse CD38, 1 to 10 nM.

With `O=C(N[C@H]1CC[C@@H](NCCC(F)(F)F)CC1)c1ccc2c(c1)-c1cncn1CCO2` [Compound 111A, N-((1s,4s)-4-((3,3,3-Trifluoropropyl)amino)cyclohexyl)-5,6-dihydrobenzo[f]imidazo[1,5-d][1,4]oxazepine-10-carboxamide], the values for the IC50 at human CD38 and on mouse CD38 were 100 to 1000 nM and more than 100 nM, respectively.

Take `CC(O)C1CCC(NC(=O)c2ccc3c(c2)-c2cncn2CCO3)CC1` (stereo not drawn) [Compound 126A, N-(4-(1-Hydroxyethyl)cyclohexyl)-5,6-dihydrobenzo[f]imidazo[1,5-d][1,4]oxazepine-10-carboxamide]: the IC50 at human CD38 fell in the range of 30 to 100 nM; at mouse CD38, 1 to 10 nM.

As to `O=C(Nc1ccc2c(c1)OCC2)c1ccc2c(c1)-c1cncn1CCO2` [Compound 32A, N-(2,3-Dihydrobenzofuran-6-yl)-5,6-dihydrobenzo[f]imidazo[1,5-d][1,4]oxazepine-10-carboxamide], the IC50 was less than 30 nM at human CD38 and 1 to 10 nM on mouse CD38.

Turning to `CS(=O)(=O)CCCO[C@H]1CC[C@H](NC(=O)c2ccc3c(c2)-c2cncn2CCO3)CC1` [Compound 85A, N-((1r,4r)-4-(3-(Methylsulfonyl)propoxy)cyclohexyl)-5,6-dihydrobenzo[f]imidazo[1,5-d][1,4]oxazepine-10-carboxamide], the half-maximal inhibitory concentration (IC50) at human CD38 was less than 30 nM; on mouse CD38, 1 to 10 nM.

For the molecule `O=C(N[C@H]1CCCC(F)(F)C1)c1ccc2c(c1)-c1cncn1CCO2` [Compound 117A, (S)—N-(3,3-Difluorocyclohexyl)-5,6-dihydrobenzo[f]imidazo[1,5-d][1,4]oxazepine-10-carboxamide], the results for the IC50 at human CD38 and at mouse CD38 were 30 to 100 nM and 1 to 10 nM, respectively.

Consider `C[C@@H]1CCCC[C@@H]1NC(=O)c1cc(F)c2c(c1)-c1cncn1CCO2` (relative stereo) [Compound 175A, 8-Fluoro-N-(cis-2-methylcyclohexyl)-5,6-dihydrobenzo[f]imidazo[1,5-d][1,4]oxazepine-10-carboxamide], for which the IC50 at human CD38 is less than 30 nM; at mouse CD38, 1 to 10 nM.

`O=C(Nc1ccc(C(F)(F)F)nc1)c1ccc2c(c1)-c1cncn1CCO2` [Compound 10A, N-(6-(Trifluoromethyl)pyridin-3-yl)-5,6-dihydrobenzo[f]imidazo[1,5-d][1,4]oxazepine-10-carboxamide]: the figures for the IC50 on human CD38 and at mouse CD38 were less than 30 nM and 1 to 10 nM, respectively.
